The text below walks through data of patent US6011046A, “Quinone compound, its production and use as antioxidant” (Takeda Chemical Industries, Ltd., priority 1995, dated 2000).

The subject of assay [1] is lipoperoxide formed in the brain homogenate. Nature of the assay: Lipoperoxide formation inhibitory effect (thiobarbituric acid (TBA) method, brain homogenate). The note with it: rat cerebral cortex homogenate supernatant, 37° C., 30 minutes, pH 7.4, malondialdehyde at 532 nm. It is filed as biochemical, Wistar male rats. Here is the method:
The lipoperoxide formed in the brain homogenate was quantified by the thiobarbituric acid (TBA) method of Stocks et al. (Cli. Sci. Mol. Med. 47, 215 (1974)). The cerebral cortex was removed from Wistar male rats (10 weeks old), and homogenized in ice-cooled phosphate physiological saline buffer (40 mM KH2 PO4 /K2 HPO4, 0.142M NaCl, pH 7.4). The homogenate was centrifuged at 1,000×g for 10 minutes, and the supernatant of the homogenate was used for the experiment. A solution of the test compound in ethanol (10 μl) was added to the supernatant (1 ml), and the mixture was incubated at 37° C. for 30 minutes. The reaction was stopped by adding 35% perchloric acid solution (200 μl). The reaction mixture was centrifuged at 13,000× g for 10 minutes, and 1% thiobarbituric acid solution (250 μl) was added to the supernatant (1.0 ml). The mixture was heated at 100° C. for 15 minutes, and then the amount of malondialdehyde formed by decomposition of the lipoperoxide was determined by colorimetry (532 nm).

For a further assay, the system named is Na+ channel site 2. Also noted: species or system SD male rats. As to conditions: [3H]-batrachotoxin 2 nM, rat forebrain homogenate, 37° C., 45 minutes; read-out: IC50 (Na+ channel binding, site 2).
A further assay has as its system Na+ channel site 1. It counts as binding, SD male rats. The note with it: [3H]-saxitoxin 2 nM, rat forebrain homogenate, 37° C., 30 minutes.

Regarding `CC1=C(C)C(=O)C(C[C@](C)(O)CN2CCC(c3ccccc3)CC2)=C(C)C1=O` [compound (A), (S)-2-[2-Hydroxy-2-methyl-3-(4-phenylpiperidin-1-yl)propyl]-3,5,6-trimethyl-1,4-benzoquinone], the IC50 in assay [1] was found to be 3.5 ± 0.56 µM; with Na+ channel site 2 it was 0.9 µM. In the assay on Na+ channel site 1, the “effect on site 1 of Na channels” value is “no effect”.
vitamin E [reference compound] came in with a half-inhibitory concentration (IC50) in assay [1] of 203 ± 43 µM.

By IC50 is commonly meant the concentration at which inhibition is half-maximal.
